Laboratory results as given in US20070244155A1 (AMGEN INC., priority 2006, published 2007).

biological target: T1, human GPR40 (Homo sapiens, UniProt O14842); assay: Cell-based aequorin assay using human GPR40; conditions: CHO cells transfected with GPR40 and aequorin expression vectors; aequorin luminescence; activation of human GPR40; read-out: Relative EC50
T1 construct: expressed in transfected cells; host or cells: CHO cells
Description: A cell-based aequorin assay may be employed to characterize the modulatory activity of compounds on the GPR40 signaling pathway. In an exemplary assay, CHO cells are transfected in a 15 cm plated containing 14 million cells with 5 μg of GPR40 expression vector and 5 μg of Aequorin expression vector (Euroscreen) using Lipofectamine 2000 (Invitrogen). After 17-24 hours post-transfection, cells are washed with phosphate buffered saline (PBS) and detached from the tissue culture dish with 2 mL of trypsin (0.25%(w/v)). Trypsinization is halted with 28 mL of Hanks Buffered Salt Solution containing 20 mM Hepes (H/HBSS) and 0.01% fatty acid-free bovine serum albumin (BSA) or 0.625% fatty acid-free human serum albumin (HSA). Coelantrazine is added to 1 ug/mL and the cells are incubated for 2 hours at room temperature. Cells are gently mixed every 15 minutes. Compounds are dissolved in dimethyl sulfoxide for preparation of 10 mM stock solutions. Compounds are diluted in H/HBSS containing either 0.01% BSA or 0.625% HSA. Serial dilutions of the test compounds are prepared to determine dose response. Aequorin luminescence measurements are made using an EG&G Berthold 96-well luminometer and the response is measured over a 20 second interval after cells and compounds are mixed. The area-under-curve from 2-20 seconds is plotted to determine dose response. The EC50 (effective concentration to reach 50% maximal response) is determined from the dose response plot. Table 1 includes representative data (EC50 values) obtained for exemplary compounds of the invention for the relative activation of human GPR40. […] Therefore, in some embodiments, the invention provides any of the compounds listed in Table 1 individually or as members of a group and pharmaceutically acceptable salts, esters, solvates, tautomers, stereoisomers, and/or prodrugs thereof.

T1 sequence (O14842 whole entry): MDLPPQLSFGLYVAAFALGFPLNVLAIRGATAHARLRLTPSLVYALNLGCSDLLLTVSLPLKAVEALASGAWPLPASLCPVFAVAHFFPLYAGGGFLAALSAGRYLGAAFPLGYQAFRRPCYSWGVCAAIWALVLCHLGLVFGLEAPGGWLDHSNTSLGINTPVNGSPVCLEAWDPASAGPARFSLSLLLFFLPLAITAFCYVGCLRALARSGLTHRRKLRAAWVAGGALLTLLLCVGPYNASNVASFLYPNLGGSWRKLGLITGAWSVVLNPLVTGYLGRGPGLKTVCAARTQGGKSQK

Row | Compound | EC50
1 | CC1CCc2cc(OCc3cccc(-c4ccc(C(F)(F)F)cc4)c3)ccc2C1CC(=O)O (mixture of isomers) [Example 22] | 1 to 10 µM
2 | CCCCOc1ccc(C)cc1-c1ccc(COc2ccc3c(c2)CCC(C)C3CC(=O)O)cc1 (mixture of isomers) [Example 23] | 1 to 10 µM
3 | Cc1ccc(-c2nc(C)c(COc3ccc4c(c3)CCC(C)C4CC(=O)O)s2)cc1 (mixture of isomers) [Example 24] | 1 to 10 µM
4 | CCCCOc1ccc(C)cc1-c1ccc(COc2ccc3c(c2)CC(C)C3CC(=O)O)cc1 (mixture of isomers) [Example 25] | 1 to 10 µM
5 | CC1Cc2cc(OCc3cccc(-c4ccc(C(F)(F)F)cc4)c3)ccc2C1CC(=O)O (mixture of isomers) [Example 26] | 1 to 10 µM
6 | CCOc1ccccc1-c1ccc(COc2ccc3c(c2)CC(C)C3CC(=O)O)cc1 (mixture of isomers) [Example 27] | 1 to 10 µM
7 | Cc1ccc(-c2nc(C)c(COc3ccc4c(c3)CC(C)C4CC(=O)O)s2)cc1 (mixture of isomers) [Example 28] | 1 to 10 µM
8 | CCCCOc1ccc(C)cc1-c1ccc(COc2ccc3c(c2)CCCC3CC(=O)O)cc1 (racemic) [Example 1, (R/S)-[6-(2′-Butoxy-5′-methyl-biphenyl-4-ylmethoxy)-1,2,3,4-tetrahydro-naphthalen-1-yl]-acetic acid] | 0.1 to 1 µM
9 | CCCCOc1ccc(C)cc1-c1ccc(COc2ccc3c(c2)CCC3CC(=O)O)cc1 (racemic) [Example 11, (R/S)-[5-(2′-Butoxy-5′-methyl-biphenyl-4-ylmethoxy)-indan-1-yl]-acetic acid] | 0.1 to 1 µM
10 | CCCCOc1ccc(C)cc1-c1ccc(COc2ccc3c(c2)CCC(C(=O)O)C3)cc1 (racemic) [Example 29, (R/S)-6-(2′-Butoxy-5′-methyl-biphenyl-4-ylmethoxy)-1,2,3,4-tetrahydro-naphthalene-2-carboxylic acid] | 0.1 to 1 µM
11 | C=C1COc2cc(OCc3ccc(-c4cc(C)ccc4OCCCC)cc3)ccc2C1CC(=O)O (racemic) [Example 35] | 0.1 to 1 µM
12 | CCCCOc1ccc(C)cc1-c1ccc(COc2ccc3c(c2)OCC(=C(C)C)C3CC(=O)O)cc1 (racemic) [Example 39] | 0.1 to 1 µM
13 | CCCCOc1ccc(C)cc1-c1ccc(COc2ccc3c(c2)OCC(C)C3CC(=O)O)cc1 (racemic) [Example 40] | 0.1 to 1 µM
14 | C=C1CCOc2cc(OCc3ccccc3)ccc2C1CC(=O)O (racemic) [Example 43, (R/S)-2-(8-(benzyloxy)-4-methylene-2,3,4,5-tetrahydrobenzo[b]oxepin-5-yl)acetic acid] | 0.1 to 1 µM
15 | C=C(c1ccc(-c2ccccc2)cc1)c1ccc2c(c1)CCCC2CC(=O)O (racemic) [Example 44, (R/S)-[6-(1-Biphenyl-4-yl-vinyl)-1,2,3,4-tetrahydro-naphthalen-1-yl]-acetic acid] | 1 to 10 µM
16 | C=C(c1ccc(Oc2ccccc2)cc1)c1ccc2c(c1)CCCC2CC(=O)O (racemic) [Example 45, (R/S)-{6-[1-(4-Phenoxy-phenyl)-vinyl]-1,2,3,4-tetrahydro-naphthalen-1-yl}-acetic acid] | 1 to 10 µM
17 | Cc1cc(Cl)ccc1-c1cccc(COc2ccc3c(c2)C(=O)NC3CC(=O)O)c1 (racemic) [Example 66, (R/S)-(5-(((4′-chloro-2′-methyl-1,1′-biphenyl-3-yl)methyl)oxy)-3-oxo-2,3-dihydro-1H-isoindol-1-yl)acetic acid] | 1 to 10 µM
18 | Cc1cc(Cl)ccc1-c1cccc(COc2ccc3c(c2)C(=O)N(C)C3CC(=O)O)c1 (racemic) [Example 67, (R/S)-(5-(((4′-chloro-2′-methyl-1,1′-biphenyl-3-yl)methyl)oxy)-2-methyl-3-oxo-2,3-dihydro-1H-isoindol-1-yl)acetic acid] | 0.1 to 1 µM
19 | Cc1c(Cl)cccc1-c1cccc(COc2ccc3c(c2)C(=O)NC3CC(=O)O)c1 (racemic) [Example 68] | 1 to 10 µM

Row | Compound | EC50
20 | Cc1c(Cl)cccc1-c1cccc(COc2ccc3c(c2)C(=O)N(C)C3CC(=O)O)c1 (racemic) [Example 69, (R/S)-(5-(((3′-chloro-2′-methyl-1,1′-biphenyl-3-yl)methyl)oxy)-2-methyl-3-oxo-2,3-dihydro-1H-isoindol-1-yl)acetic acid] | 0.1 to 1 µM
21 | CN1C(=O)c2cc(OCc3cccc(-c4ccc(C(F)(F)F)cc4)c3)ccc2C1CC(=O)O (racemic) [Example 70, (R/S)-(2-methyl-3-oxo-5-(((4′-(trifluoromethyl)-1,1′-biphenyl-3-yl)methyl)oxy)-2,3-dihydro-1H-isoindol-1-yl)acetic acid] | 1 to 10 µM
22 | O=C(O)CC1c2ccc(OCc3cccc(-c4ccc(C(F)(F)F)cc4)c3)cc2OCc2conc21 (racemic) [Example 71, (R/S)-(7-(((4′-(trifluoromethyl)-1,1′-biphenyl-3-yl)methyl)oxy)-4H,10H-[l]benzoxepino[4,3-c]isoxazol-10-yl)acetic acid] | 1 to 10 µM
23 | CCOc1ccc(F)c(-c2ccc(COc3ccc4c(c3)CCC(C(=O)O)C4)cc2)c1 (racemic) [Example 72, (R/S)-6-(((5′-(ethoxy)-2′-fluoro-1,1′-biphenyl-4-yl)methyl)oxy)-1,2,3,4-tetrahydro-2-naphthalenecarboxylic acid] | 1 to 10 µM
24 | CCOc1ccc(F)c(-c2ccc(COc3ccc4c(c3)CCCC4CC(=O)O)cc2)c1 (stereo in doubt) [Example 60, (S)-[6-(5′-Ethoxy-2′-fluoro-biphenyl-4-ylmethoxy)-1,2,3,4-tetrahydro-naphthalen-1-yl]-acetic acid] | 1 to 10 µM
25 | CCOc1ccccc1-c1ccc(COc2ccc3c(c2)CCCC3CC(=O)O)cc1 (centres unmarked) [Example 2, [6-(2′-Ethoxy-biphenyl-4-ylmethoxy)-1,2,3,4-tetrahydro-naphthalen-1-yl]-acetic acid] | 0.1 to 1 µM
26 | O=C(O)C[C@@H]1CCCc2cc(OCc3cccc(-c4ccc(C(F)(F)F)cc4)c3)ccc21 [Example 3, [(S)-6(4′-Trifluoromethyl-biphenyl-3-ylmethoxy)-1,2,3,4-tetrahydro-naphthalen-1-yl]-acetic acid] | 0.1 to 1 µM
27 | CCCCOc1ccc(C)cc1-c1ccc(COc2ccc3c(c2)CCC[C@H]3CC(=O)O)cc1 [Example 4] | < 0.1 µM
28 | Cc1ccc(-c2nc(C)c(COc3ccc4c(c3)CCC[C@H]4CC(=O)O)s2)cc1 [Example 5] | < 0.1 µM
29 | O=C(O)C[C@H]1CCCc2cc(OCc3cccc(-c4ccc(C(F)(F)F)cc4)c3)ccc21 [Example 6] | 1 to 10 µM
30 | COc1cccc(-c2ccc(COc3ccc4c(c3)CCCC4CC(=O)O)cc2)c1 (centres unmarked) [Example 7] | < 0.1 µM
31 | O=C(O)CC1CCCc2cc(OCc3cccc(-c4ccc(C(F)(F)F)cc4)c3)ccc21 (centres unmarked) [Example 8] | 0.1 to 1 µM
32 | COc1ccc(COc2ccc3c(c2)CCCC3CC(=O)O)cc1 (centres unmarked) [Example 9] | 1 to 10 µM
33 | Cc1ccc(-c2nc(C)c(COc3ccc4c(c3)CCCC4CC(=O)O)s2)cc1 (centres unmarked) [Example 10] | 0.1 to 1 µM
34 | CCOc1ccccc1-c1ccc(COc2ccc3c(c2)CCC3CC(=O)O)cc1 (centres unmarked) [Example 12] | 0.1 to 1 µM
35 | COc1cccc(-c2ccc(COc3ccc4c(c3)CCC4CC(=O)O)cc2)c1 (centres unmarked) [Example 13] | 0.1 to 1 µM
36 | Cc1ccc(-c2nc(C)c(COc3ccc4c(c3)CCC4CC(=O)O)s2)cc1 (centres unmarked) [Example 14] | 0.1 to 1 µM
37 | O=C(O)CC1CCc2cc(OCc3cccc(-c4ccc(C(F)(F)F)cc4)c3)ccc21 (centres unmarked) [Example 15] | 1 to 10 µM
38 | CCOc1cccc(-c2ccc(COc3ccc4c(c3)C(CC(=O)O)CCC4)cc2)c1 (centres unmarked) [Example 16] | 1 to 10 µM
